pEC50: −log10 of the molar value.
System: SRA 01/04 HLE cells
Test: Cell-based UV protection, viability by Alamar blue;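 also: cells pretreated with compound at a range of concentrations before UV irradiation, viability read 24 h after exposure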
Set-up: species or system human
Conditions: Table 5

Row | SMILES | Cell-based [UV] (max % net protection) [%]
1 | COc1ccc(C(=O)c2ccc([N+](=O)[O-])cc2)cc1S(=O)(=O)NC1CCCCC1 [CAP4257] | 19
2 | O=C(c1ccccc1)c1ccc([N+](=O)[O-])cc1 [CAP4131] | 0
3 | Nc1ccc(Cl)cc1C(=O)c1ccccc1Cl [CAP4126] | 0
4 | CCc1onc2ccc(C(=O)c3ccccc3)cc12 [CAP4258] | 36
5 | Nc1ccc(C(=O)c2ccccc2)cc1 [CAP4128] | 23
6 | COc1ccc(C(=O)c2ccc([N+](=O)[O-])cc2)cc1S(=O)(=O)NCc1ccccc1 [CAP4256] | 7

System: human lens epithelial (HLE) cells
Test: Cell-based heat protection, viability by Alamar blue
Set-up: Cell Heat % protection: concentration or dose not given beside the values
Conditions: Table 8
Protocol: Alamar blue was used for assessing viability. Mean±SEM of the measurements are shown.
Cell-based using assays using human lens epithelial cell lines SRA 01/04 and B3 were also performed. The cells were exposed to UV or heat and cell viability assessed 24 hours post-exposure by Alamar blue staining. In another experiment, SRA 01/04 cells were pre-incubated with varying concentrations of compounds two hours prior to UV exposure. Relative protection was measured as percent viability compared to vehicle control 24 hours following UV exposure. Mean±SEM of the measurements are shown.

Row | SMILES | Cell Heat % protection [%]
7 | Nc1ccc2cc(S(=O)(=O)[O-])cc(O)c2c1.[Na+] [CAP4187] | 19
8 | Nc1ccc2c(O)cc(S(=O)(=O)O)cc2c1 [CAP4190] | 15
9 | Nc1cc(S(=O)(=O)O)cc2cc(S(=O)(=O)O)cc(O)c12 [CAP4179] | 29
10 | O=S(=O)([O-])c1cc(O)c2cc(O)ccc2c1.[Na+] [CAP4186] | 17
11 | Nc1c(O)cc(S(=O)(=O)O)c2ccccc12 [CAP4188] | 2
12 | O=S(=O)(O)c1cc(O)c2cc(Nc3ccccc3)ccc2c1 [CAP4183] | 17
13 | Nc1ccc2c(O)cc(S(=O)(=O)O)cc2c1 [CAP4180] | 22

Target: T1, alpha-A crystalline (Homo sapiens, UniProt P02489)
T1 sequence (P02489 1-173): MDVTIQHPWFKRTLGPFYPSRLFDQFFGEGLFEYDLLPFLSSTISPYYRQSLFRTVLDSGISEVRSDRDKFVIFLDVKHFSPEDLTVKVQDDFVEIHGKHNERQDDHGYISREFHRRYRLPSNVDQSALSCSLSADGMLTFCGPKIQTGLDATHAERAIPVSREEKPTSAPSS
Test: Ca+2 and UVC induced aggregation of alpha-A crystalline (absorbance screen);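 also: recombinant human alpha-A crystallin (500 µg/ml) preincubated 30 min with compound, then UV-induced aggregation tracked by absorbance at time points from 0 to 120 min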
Type: biochemical
Conditions: 200 μM; Ca+2 and UVC induced aggregation of alpha-A crystalline

Row | SMILES | Percent protection (at 200 μM) [%]
14 | CC(CCc1ccc(O)cc1)NCCc1ccc(O)c(O)c1 (stereo not shown) [CAP1266] | −14
15 | COc1ccc(CCNC(=O)CCCC(=O)NCCc2ccc(OC)c(OC)c2)cc1OC [CAP1278] | 38
16 | CC(CCc1ccc(O)cc1)NCCc1ccc(O)c(O)c1 (stereo not shown) [CAP1264] | 3
17 | Oc1cc(O)c2c(c1)O[C@H](c1ccc(O)c(O)c1)[C@H](O)C2 [CAP3042] | −17
18 | COc1ccc(CCNC(=O)CCC2CCCCC2)cc1OC [CAP1224] | 46
19 | COc1ccc(CCNC(=O)CCCC(=O)NCCc2ccc(OC)c(OC)c2)cc1OC [CAP1228, N,N′-bis[2-(3,4-dimethoxyphenyl)ethyl]pentanediamide] | 60
20 | Oc1cc(O)c2c(c1)O[C@H](c1ccc(O)c(O)c1)[C@H](O)C2 [CAP3032] | −16
21 | Oc1cc(O)c2c(c1)O[C@H](c1ccc(O)c(O)c1)[C@H](O)C2 [CAP1049] | −5

Same assay, conditions: 200 μM; Ca+2 and UVC induced aggregation of alpha-A crystalline; read-out: Percent protection (at 200 μM)

Row | SMILES | inhibition at 200 µM [%]
22 | CC(=O)c1cc(C)cc([N+](=O)[O-])c1O [CAP3071] | 30
23 | CCCCCCCCCCCCCCCCCC(=O)NCCc1ccc(O)c(O)c1 [CAP1241] | 135
24 | COc1ccc(/C=C/C(=O)O)cc1OC [CAP3064] | 12
25 | Oc1ccc(CCNCCCCCCNCCc2ccccc2)cc1O [CAP1215] | -47
26 | COc1cc(/C=N/c2cccc(C)n2)cc([N+](=O)[O-])c1O [CAP1110] | 19
27 | O=C(NCCc1ccccc1)C1CCC(C(=O)NCCc2ccccc2)CC1 (stereo not shown) [CAP1280] | 44
28 | COc1ccc(CCNC(=O)C2CCC2)cc1OC [CAP1226, N-[2-(3,4-dimethoxyphenyl)ethyl]cyclobutanecarboxamide] | 72
29 | COc1ccc(CCNC(=O)CCCCC(=O)NCCc2ccc(OC)c(OC)c2)cc1OC [CAP1225] | 50
30 | O=c1c(O)c(-c2ccc(O)c(O)c2)oc2cc(O)ccc12 [CAP1053] | 52
31 | O=C1c2ccc(S(=O)(=O)O)c(O)c2C(=O)c2ccc(S(=O)(=O)O)c(O)c21 [CAP1219] | -5
32 | Oc1cc(O)c2c(c1)O[C@H](c1ccc(O)c(O)c1)[C@@H](O)C2 [CAP1047] | -17
33 | Oc1cc2cc[nH]c2cc1O [CP1194] | 25
34 | COc1cc(C(=O)O)cc(OC)c1O [CAP3107] | 7
35 | O=C(OC[C@H]1OC(OC(=O)c2cc(O)c(O)c(OC(=O)c3cc(O)c(O)c(O)c3)c2)[C@H](OC(=O)c2cc(O)c(O)c(OC(=O)c3cc(O)c(O)c(O)c3)c2)[C@@H](OC(=O)c2cc(O)c(O)c(OC(=O)c3cc(O)c(O)c(O)c3)c2)[C@@H]1OC(=O)c1cc(O)c(O)c(OC(=O)c2cc(O)c(O)c(O)c2)c1)c1cc(O)c(O)c(OC(=O)c2cc(O)c(O)c(O)c2)c1 (stereo partly shown) [CAP1176] | 76
36 | COc1ccc(CCNC(=O)CC23CC4CC(CC(C4)C2)C3)cc1OC [CAP1281] | 64
37 | O=C1O[C@H]([C@@H](O)CO)C(O)=C1O [CAP3037] | -2
38 | O=C1c2ccccc2C(=O)c2c1cc(S(=O)(=O)O)c(O)c2O [CAP1072] | 53
39 | Oc1cc(O)c2c(c1)O[C@@H](c1ccc(O)c(O)c1)[C@@H](O)C2 [CAP1458] | -17
40 | NCCc1ccc(O)c(O)c1 [CAP1265] | -6
41 | COc1cc(/C=C/C(=O)/C=C(O)/C=C/c2ccc(O)c(OC)c2)ccc1O [CAP1459] | -95
42 | COc1ccc(CCNC(=O)CCCC2CCCC2)cc1OC [CAP1236] | -2
43 | CC(=O)Oc1cc2cc[nH]c2cc1OC(C)=O [CAP1517] | 40
44 | COc1ccc(CCNC(=O)CCCC(=O)NCOc2ccc(OC)cc2)cc1 [CAP1229] | 22
45 | COc1cc(/C=C/C(=O)CC(=O)/C=C/c2ccc(O)c(OC)c2)ccc1O [CAP3040] | 4
46 | Oc1ccc(C2CNCCc3c2cc(O)c(O)c3Cl)cc1 (stereo not shown) [CAP1044] | -16
47 | O=C(O)/C=C/c1ccc(O)c(O)c1 [CAP3062] | 16
48 | COc1ccc(/C=C/C(C)=O)cc1OC [CAP3066] | 21

Row | SMILES | inhibition at 200 µM [%]
49 | COc1ccc(CCNC(=O)CCC2CCCCC2)cc1OC [CAP1274] | 55
50 | COc1cc2cc[nH]c2cc1OC [CAP1519] | 9
51 | COc1ccc(CC(=O)NC2CCCCCCCCCCC2)cc1OC [CAP1279] | 5
52 | O=C(O[C@H]1Cc2c(O)cc(O)cc2O[C@H]1c1cc(O)c(O)c(O)c1)c1cc(O)c(O)c(O)c1 [CAP1460] | 1
53 | COC(=O)[C@@H](NC(C)=O)c1ccc(OC(C)=O)c(OC(C)=O)c1 [CAP1518] | -4
54 | C[C@@](Cc1ccc(O)c(O)c1)(NN)C(=O)O [CAP1055] | 1
55 | COc1ccc(CCNC(=O)C2CC2)cc1OC [CAP1230, N-[2-(3,4-dimethoxyphenyl)ethyl]cyclopropanecarboxamide] | 18
56 | NC(=O)c1ncn([C@@H]2O[C@H](CO)[C@@H](O)[C@H]2O)n1 [CAP1380] | 16
57 | CNC[C@H](O)c1ccc(O)c(O)c1 [CAP1043] | -5
58 | C[C@](N)(Cc1ccc(O)c(O)c1)C(=O)O [CAP1056] | -5
59 | COc1ccc(CCNC(=O)C2CCCC2)cc1OC [CAP1231, N-[2-(3,4-dimethoxyphenyl)ethyl]cyclopentanecarboxamide] | 51
60 | COc1cc(CC2NCCc3cc(O)c(O)cc32)cc(OC)c1OC (stereo not shown) [CAP1058] | -27
61 | COc1cc2nc(N3CCN(C(=O)C4COc5ccccc5O4)CC3)nc(N)c2cc1OC (stereo not shown) [CAP3035] | 114
62 | CC(=O)/C=C/c1ccc(O)c(O)c1 [CAP3065] | -32
63 | CCC(CC)C(=O)NCCc1ccc(OC)c(OC)c1 [CAP1223] | 29
64 | O=c1c(O)c(-c2ccc(O)c(O)c2)oc2cc(O)cc(O)c12 [CAP1451] | 35
65 | COc1cc2cc(C(=O)O)[nH]c2cc1OC [CAP1447] | 22
66 | COc1ccc(CCNC(=O)C2CCN(C(=O)c3ccc(F)cc3)CC2)cc1OC [CAP1232] | 41
67 | COc1cc(CNc2cccc(C)n2)cc([N+](=O)[O-])c1O [CAP1112] | 12
68 | O=C(O)[C@H]1OC(Oc2cc3oc(-c4ccccc4)cc(=O)c3c(O)c2O)[C@H](O)[C@@H](O)[C@@H]1O (stereo partly shown) [CAP1052] | 3
69 | COc1ccc(CCNC(=O)C2CCCCC2)cc1OC [CAP1222] | 38
70 | O=C1c2ccccc2C(=O)c2c1ccc(S(=O)(=O)O)c2O [CAP1220] | 20
71 | CCN(CC)C(=O)/C(C#N)=C/c1cc(O)c(O)c([N+](=O)[O-])c1 [CAP1159] | 27
72 | O=C(CC1CCC1)NCCc1ccc(O)c(O)c1 [CAP1239] | 23
73 | O=C(NCCc1ccc(O)c(O)c1)C12CC3CC(CC(C3)C1)C2 [CAP1057] | -8
74 | COc1ccc(CCNC(=O)C2CCN(C(=O)Cc3ccccc3)CC2)cc1OC [CAP1227, N-[2-(3,4-dimethoxyphenyl)ethyl]-1(phenylacetyl)-4-piperidinecarboxamide] | 46

Same assay, conditions: preventing Ca+2 and UVC induced aggregation of alpha-A crystalline

Row | SMILES | pEC50
75 | N[C@@H](Cc1ccc(O)c(O)c1)C(=O)O [CAP1042] | 3.07
76 | O=C(NCCc1ccccc1)C1CCC(C(=O)NCCc2ccccc2)CC1 (stereo not shown) [CAP1280] | 3.71
77 | COc1ccc(CCNC(=O)C2CCC2)cc1OC [CAP1226, N-[2-(3,4-dimethoxyphenyl)ethyl]cyclobutanecarboxamide] | 4.34
78 | O=c1c(O)c(-c2ccc(O)c(O)c2)oc2cc(O)ccc12 [CAP1053] | 3.34
79 | Oc1cc2cc[nH]c2cc1O [CP1194] | 2.96
80 | COc1ccc(CCNC(=O)CCC2CCCCC2)cc1OC [CAP1224] | 3.06
81 | CCN(CC)C(=O)/C(C#N)=C/c1cc(O)c(O)c([N+](=O)[O-])c1 [CAP1159] | 3.50
82 | COc1ccc(CCNC(=O)C2CCN(C(=O)Cc3ccccc3)CC2)cc1OC [CAP1227, N-[2-(3,4-dimethoxyphenyl)ethyl]-1(phenylacetyl)-4-piperidinecarboxamide] | 3.54

Same assay, conditions: read-out: Percent protection (at 200 μM)

Row | SMILES | inhibition at 200 µM [%]
83 | CC(CCc1ccc(O)cc1)NCCc1ccc(O)c(O)c1 (stereo not shown) [CAP1051] | -28
84 | CC1CCC(NC(C)Cc2ccc(O)c(O)c2)CC1 (stereo not shown) [CAP1240] | -13
85 | Cc1cc2c(C(C)C)c(O)c(O)c(C=O)c2c(O)c1-c1c(C)cc2c(C(C)C)c(O)c(O)c(C=O)c2c1O [CAP1356] | -46
